Test results published in US9995734B2, “Human T cell line assay for evaluating the immunologic identity of glatiramer acetate preparations” (Mylan Inc., priority 2013, dated 2018).

Experiments:
Donor 3 GMA T-Cell Lines = experiment: ATP proliferation assay (CellTiter Glo), Donor 3 GMA T-cell lines, incl. reactivity to non-canonical GA peptides; type: cell-based, human; conditions: for Mean, ATP proliferation assay: 10 μg/mL
Donor 3 COP T-Cell Lines = experiment: ATP proliferation assay (CellTiter Glo), Donor 3 COP T-cell lines, incl. reactivity to non-canonical GA peptides; type: cell-based, human; conditions: for Reactivity (proliferation), Mean: Day 54 of culture; for Mean, ATP proliferation assay: 10 μg/mL

Q: FFKNIVTPRTPPPSQGK [MBP] was tested. Which “Mean, ATP proliferation assay” value (Donor 3 GMA T-Cell Lines; T-cell line 165-B2G, Day 40) did it give?
A: The value was 3320.

Q: And the “Proliferation (luminescent ATP assay), Mean” value (Donor 3 GMA T-Cell Lines; T-cell line 165-B5G, 10 μg/mL antigen, Day 55 of culturing, No Antigen Value 846)?
A: Its value is 871 RLU.

Q: And the “Mean, ATP proliferation assay” value (Donor 3 GMA T-Cell Lines; T-cell line 165-B5G, Day 40)?
A: Its value is 3398.

Q: And the “Mean, ATP proliferation assay” value (Donor 3 GMA T-Cell Lines; T-cell line 165-C4G, Day 40)?
A: The value was 3482.

Q: What about the “Proliferation (luminescent ATP assay), Mean” value (Donor 3 GMA T-Cell Lines; T-cell line 165-C5G, 10 μg/mL antigen, autologous B-LCL) of the same sequence?
A: Its value is 469 RLU.

Q: What about the “Mean, ATP proliferation assay” value (Donor 3 GMA T-Cell Lines; T-cell line 165-C5G, Day 40) of the same sequence?
A: Its value is 3401.

Q: What about the “Mean, ATP proliferation assay” value (Donor 3 GMA T-Cell Lines; T-cell line 165-C8G, tested with the Donor 3 COP lines of Table 25) of the same sequence?
A: The value was 5279 RLU.

Q: What about the “Mean, ATP proliferation assay” value (Donor 3 GMA T-Cell Lines; T-cell line 165-D8G, Day 40) of the same sequence?
A: Its value is 6909.

Q: What about the “Proliferation (luminescent ATP assay), Mean” value (Donor 3 GMA T-Cell Lines; T-cell line 165-E7G, 10 μg/mL antigen, autologous B-LCL, Day 55) of the same sequence?
A: The value was 2116 RLU.

Q: What about the “Mean, ATP proliferation assay” value (Donor 3 GMA T-Cell Lines; T-cell line 165-E7G, Day 40) of the same sequence?
A: The value was 2989.

Q: And the “Proliferation (luminescent ATP assay), Mean” value (Donor 3 GMA T-Cell Lines; T-cell line 165-E9G, 1 μg/mL antigen, Day 50 of culturing, No Antigen Value 1742)?
A: Its value is 1527 RLU.

Q: And the “Proliferation (luminescent ATP assay), Mean” value (Donor 3 GMA T-Cell Lines; T-cell line 165-E9G, 3 μg/mL antigen, Day 50 of culturing, No Antigen Value 1742)?
A: Its value is 1428 RLU.

Q: What about the “Proliferation (luminescent ATP assay), Mean” value (Donor 3 GMA T-Cell Lines; T-cell line 165-E9G, 10 μg/mL antigen, autologous B-LCL) of the same sequence?
A: Its value is 163 RLU.

Q: And the “Mean, ATP proliferation assay” value (Donor 3 GMA T-Cell Lines; T-cell line 165-E9G, Day 40)?
A: The value was 2892.

Q: What about the “Proliferation (luminescent ATP assay), Mean” value (Donor 3 GMA T-Cell Lines; T-cell line 165-E9G, 30 μg/mL antigen, Day 50 of culturing, No Antigen Value 1742) of the same sequence?
A: Its value is 1208 RLU.

Q: What about the “Proliferation (luminescent ATP assay), Mean” value (Donor 3 GMA T-Cell Lines; T-cell line 165-E9G, 10 μpg/mL antigen, Day 50 of culturing, No Antigen Value 1742) of the same sequence?
A: Its value is 1247 RLU.

Q: What about the “Mean, ATP proliferation assay” value (Donor 3 GMA T-Cell Lines; T-cell line 165-F2G, Day 40) of the same sequence?
A: Its value is 2345.

Q: What about the “Proliferation (luminescent ATP assay), Mean” value (Donor 3 GMA T-Cell Lines; T-cell line 165-F5G, 10 μg/mL antigen, autologous B-LCL) of the same sequence?
A: Its value is 138 RLU.

Q: What about the “Mean, ATP proliferation assay” value (Donor 3 GMA T-Cell Lines; T-cell line 165-F5G, Day 40) of the same sequence?
A: Its value is 2904.

Q: What about the “Mean, ATP proliferation assay” value (Donor 3 GMA T-Cell Lines; T-cell line 165-F8G, Day 40) of the same sequence?
A: The value was 3366.

Q: What about the “Proliferation (luminescent ATP assay), Mean” value (Donor 3 GMA T-Cell Lines; T-cell line 165-F10G, 10 μg/mL antigen, autologous B-LCL) of the same sequence?
A: The value was 831 RLU.

Q: What about the “Mean, ATP proliferation assay” value (Donor 3 GMA T-Cell Lines; T-cell line 165-F10G, Day 40) of the same sequence?
A: Its value is 3585.

Q: What about the “Proliferation (luminescent ATP assay), Mean” value (Donor 3 GMA T-Cell Lines; T-cell line 165-H11G, 10 μg/mL antigen, autologous B-LCL) of the same sequence?
A: The value was 323 RLU.

Q: And the “Mean, ATP proliferation assay” value (Donor 3 GMA T-Cell Lines; T-cell line 165-H11G, Day 40)?
A: Its value is 2925.

Q: And the “Reactivity (proliferation), Mean” value (Donor 3 COP T-Cell Lines; T-cell line 165-B6C, 3 μg/mL antigen, No Antigen 2358)?
A: Its value is 2205 RLU.

Q: What about the “Reactivity (proliferation), Mean” value (Donor 3 COP T-Cell Lines; T-cell line 165-B6C, 10 μg/mL antigen, No Antigen 2358) of the same sequence?
A: The value was 2268 RLU.

Q: And the “Mean, ATP proliferation assay” value (Donor 3 COP T-Cell Lines; T-cell line 165-B6C, Day 46, after 3 days)?
A: The value was 3216 RLU.

Q: And the “Reactivity (proliferation), Mean” value (Donor 3 COP T-Cell Lines; T-cell line 165-B6C, 100 μg/mL antigen, No Antigen 2358)?
A: Its value is 2201 RLU.

Q: And the “Reactivity (proliferation), Mean” value (Donor 3 COP T-Cell Lines; T-cell line 165-B10C, 3 μg/mL antigen, No Antigen 2234)?
A: Its value is 2176 RLU.

Q: What about the “Reactivity (proliferation), Mean” value (Donor 3 COP T-Cell Lines; T-cell line 165-B10C, 10 μg/mL antigen, No Antigen 2234) of the same sequence?
A: Its value is 2320 RLU.

Q: What about the “Mean, ATP proliferation assay” value (Donor 3 COP T-Cell Lines; T-cell line 165-B10C, Day 46, after 3 days) of the same sequence?
A: The value was 3003 RLU.

Q: And the “Reactivity (proliferation), Mean” value (Donor 3 COP T-Cell Lines; T-cell line 165-B10C, 100 μg/mL antigen, No Antigen 2234)?
A: The value was 2272 RLU.

Q: What about the “Mean, ATP proliferation assay” value (Donor 3 COP T-Cell Lines; T-cell line 165-C4C, Day 39) of the same sequence?
A: Its value is 1631.

Q: And the “Proliferation (luminescent ATP assay), Mean” value (Donor 3 COP T-Cell Lines; T-cell line 165-C7C, 10 μg/mL antigen, autologous B-LCL)?
A: The value was 278 RLU.

Q: What about the “Mean, ATP proliferation assay” value (Donor 3 COP T-Cell Lines; T-cell line 165-C7C, Day 39) of the same sequence?
A: The value was 1673.

Q: And the “Mean, ATP proliferation assay” value (Donor 3 COP T-Cell Lines; T-cell line 165-D2C, Day 39)?
A: The value was 1927.

Q: And the “Reactivity (proliferation), Mean” value (Donor 3 COP T-Cell Lines; T-cell line 165-D3C, 3 μg/mL antigen, No Antigen 8319)?
A: Its value is 8037 RLU.

Q: And the “Reactivity (proliferation), Mean” value (Donor 3 COP T-Cell Lines; T-cell line 165-D3C, 10 μg/mL antigen, No Antigen 8319)?
A: The value was 8656 RLU.

Q: What about the “Mean, ATP proliferation assay” value (Donor 3 COP T-Cell Lines; T-cell line 165-D3C, Day 46, after 3 days) of the same sequence?
A: Its value is 15482 RLU.

Q: And the “Reactivity (proliferation), Mean” value (Donor 3 COP T-Cell Lines; T-cell line 165-D3C, 100 μg/mL antigen, No Antigen 8319)?
A: Its value is 8647 RLU.

Q: And the “Reactivity (proliferation), Mean” value (Donor 3 COP T-Cell Lines; T-cell line 165-D11C, 3 μg/mL antigen, No Antigen 4571)?
A: The value was 4348 RLU.

Q: What about the “Reactivity (proliferation), Mean” value (Donor 3 COP T-Cell Lines; T-cell line 165-D11C, 10 μg/mL antigen, No Antigen 4571) of the same sequence?
A: Its value is 4301 RLU.

Q: And the “Mean, ATP proliferation assay” value (Donor 3 COP T-Cell Lines; T-cell line 165-D11C, Day 46, after 3 days)?
A: The value was 8406 RLU.

Q: And the “Reactivity (proliferation), Mean” value (Donor 3 COP T-Cell Lines; T-cell line 165-D11C, 100 μg/mL antigen, No Antigen 4571)?
A: The value was 4020 RLU.

Q: And the “Reactivity (proliferation), Mean” value (Donor 3 COP T-Cell Lines; T-cell line 165-E3C, 3 μg/mL antigen, No Antigen 2797)?
A: Its value is 2898 RLU.

Q: What about the “Reactivity (proliferation), Mean” value (Donor 3 COP T-Cell Lines; T-cell line 165-E3C, 10 μg/mL antigen, No Antigen 2797) of the same sequence?
A: Its value is 2658 RLU.

Q: And the “Mean, ATP proliferation assay” value (Donor 3 COP T-Cell Lines; T-cell line 165-E3C, Day 46, after 3 days)?
A: The value was 7662 RLU.

Q: And the “Reactivity (proliferation), Mean” value (Donor 3 COP T-Cell Lines; T-cell line 165-E3C, 100 μg/mL antigen, No Antigen 2797)?
A: Its value is 2582 RLU.

Q: And the “Reactivity (proliferation), Mean” value (Donor 3 COP T-Cell Lines; T-cell line 165-F3C, 3 μg/mL antigen, No Antigen 3150)?
A: The value was 3369 RLU.

Q: And the “Reactivity (proliferation), Mean” value (Donor 3 COP T-Cell Lines; T-cell line 165-F3C, 10 μg/mL antigen, No Antigen 3150)?
A: Its value is 3115 RLU.

Q: What about the “Mean, ATP proliferation assay” value (Donor 3 COP T-Cell Lines; T-cell line 165-F3C, Day 46, after 3 days) of the same sequence?
A: The value was 9849 RLU.

Q: What about the “Reactivity (proliferation), Mean” value (Donor 3 COP T-Cell Lines; T-cell line 165-F3C, 100 μg/mL antigen, No Antigen 3150) of the same sequence?
A: Its value is 3017 RLU.

Q: And the “Reactivity (proliferation), Mean” value (Donor 3 COP T-Cell Lines; T-cell line 165-F6C, 3 μg/mL antigen, No Antigen 2189)?
A: The value was 1960 RLU.

Q: And the “Reactivity (proliferation), Mean” value (Donor 3 COP T-Cell Lines; T-cell line 165-F6C, 10 μg/mL antigen, No Antigen 2189)?
A: The value was 1977 RLU.

Q: And the “Mean, ATP proliferation assay” value (Donor 3 COP T-Cell Lines; T-cell line 165-F6C, Day 46, after 3 days)?
A: The value was 2214 RLU.

Q: And the “Reactivity (proliferation), Mean” value (Donor 3 COP T-Cell Lines; T-cell line 165-F6C, 100 μg/mL antigen, No Antigen 2189)?
A: The value was 3672 RLU.
